We go through 16 compounds from US20240246964A1 (Arbutus Biopharma Corporation, priority 2021, published 2024).

Broadly, the EC50 is the concentration that produces a half-maximal response. A high value points to lower potency in that assay.

Molecules are shown by their SMILES.

human PD-L1, sequence (Q9NZQ7 19-290): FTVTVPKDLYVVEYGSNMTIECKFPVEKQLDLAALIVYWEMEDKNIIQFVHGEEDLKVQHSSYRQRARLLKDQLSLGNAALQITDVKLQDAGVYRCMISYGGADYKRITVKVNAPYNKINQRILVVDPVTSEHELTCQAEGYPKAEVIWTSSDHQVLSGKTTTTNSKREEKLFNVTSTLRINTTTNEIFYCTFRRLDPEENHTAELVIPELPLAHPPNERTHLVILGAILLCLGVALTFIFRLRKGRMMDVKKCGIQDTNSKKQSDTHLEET

This experiment addresses human PD-L1 (Homo sapiens (Human), UniProt Q9NZQ7). Put plainly: T cell activation luciferase reporter cell culture system (T Cell Activation Assay). Type of experiment: cell-based. The note with it: luciferase reporter assay; PD-L1 aAPC/CHO-K1 cells with PD-1 effector Jurkat T cells. (In a reporter assay the amount or activity of a reporter protein is the signal.)
The compound `COc1cc(-c2nccc(-c3cccc(-c4ccc(CNC[C@@H]5CCC(=O)N5)c(OC)n4)c3Cl)c2Cl)cc(F)c1CNC[C@H](C)O` [Cmpd 80, (S)-5-((((6-(2-chloro-3-(3-chloro-2-(3-fluoro-4-((((S)-2-hydroxypropyl)amino)methyl)-5-methoxyphenyl)pyridin-4-yl)phenyl)-2-methoxypyridin-3-yl)methyl)amino)methyl)pyrrolidin-2-one] registered an EC50 of 46.2 nM.
As for `COc1cc(-c2nccc(-c3cccc(-c4ccc(CNC[C@@H]5CCC(=O)N5)c(OC)n4)c3Cl)c2Cl)cc(F)c1CNC[C@@H](C)O` [Cmpd 81, (S)-5-((((6-(2-chloro-3-(3-chloro-2-(3-fluoro-4-((((R)-2-hydroxypropyl)amino)methyl)-5-methoxyphenyl)pyridin-4-yl)phenyl)-2-methoxypyridin-3-yl)methyl)amino)methyl)pyrrolidin-2-one], the figure is 31.4 nM; as for `COc1cc(-c2nccc(-c3cccc(-c4ccc(CNC[C@@H]5CCC(=O)N5)c(OC)n4)c3Cl)c2Cl)cc(F)c1CNC(C)C` [Cmpd 82, (S)-5-((((6-(2-chloro-3-(3-chloro-2-(3-fluoro-4-((isopropylamino)methyl)-5-methoxyphenyl)pyridin-4-yl)phenyl)-2-methoxypyridin-3-yl)methyl)amino)methyl)pyrrolidin-2-one], 60.5 nM; as for `COc1cc(-c2nccc(-c3cccc(-c4ccc(CNC[C@@H]5CCC(=O)N5)c(OC)n4)c3Cl)c2Cl)cc(F)c1CNCC(C)C` [Cmpd 83, (S)-5-((((6-(2-chloro-3-(3-chloro-2-(3-fluoro-4-((isobutylamino)methyl)-5-methoxyphenyl)pyridin-4-yl)phenyl)-2-methoxypyridin-3-yl)methyl)amino)methyl)pyrrolidin-2-one], 66.2 nM.
In the case of `COc1cc(-c2nccc(-c3cccc(-c4ccc(CNCCO)c(OC)n4)c3Cl)c2Cl)cc2c1CN(CCCF)CC2` [Cmpd 84, 2-(((6-(2-chloro-3-(3-chloro-2-(2-(3-fluoropropyl)-8-methoxy-1,2,3,4-tetrahydroisoquinolin-6-yl)pyridin-4-yl)phenyl)-2-methoxypyridin-3-yl)methyl)amino)ethan-1-ol] it was 71 nM; in that of `COc1cc(-c2nccc(-c3cccc(-c4ccc(CNCCO)c(OC)n4)c3Cl)c2Cl)cc2c1CN(CCC1CCNCC1)CC2` [Cmpd 85, 2-(((6-(2-chloro-3-(3-chloro-2-(8-methoxy-2-(2-(piperidin-4-yl)ethyl)-1,2,3,4-tetrahydroisoquinolin-6-yl)pyridin-4-yl)phenyl)-2-methoxypyridin-3-yl)methyl)amino)ethan-1-ol], 142 nM.
As for `COc1cc(-c2nccc(-c3cccc(-c4cc(Cl)c(CNC[C@@H]5CCC(=O)N5)c(OC)n4)c3Cl)c2Cl)cc2c1CN(C[C@H](C)O)CC2` [Cmpd 86, (S)-5-((((4-chloro-6-(2-chloro-3-(3-chloro-2-(2-((S)-2-hydroxypropyl)-8-methoxy-1,2,3,4-tetrahydroisoquinolin-6-yl)pyridin-4-yl)phenyl)-2-methoxypyridin-3-yl)methyl)amino)methyl)pyrrolidin-2-one], the figure is 27.5 nM; as for `COc1cc(-c2nccc(-c3cccc(-c4ccc(CNC[C@@H]5CCC(=O)N5)c(OC)n4)c3Cl)c2Cl)ccc1CN1CC2(CNC(=O)C2)C1` [Cmpd 88, (S)-2-(4-(3-chloro-4-(2-chloro-3-(6-methoxy-5-((((5-oxopyrrolidin-2-yl)methyl)amino)methyl)pyridin-2-yl)phenyl)pyridin-2-yl)-2-methoxybenzyl)-2,6-diazaspiro[3.4]octan-7-one], 24.9 nM; as for `COc1cc(-c2nccc(-c3cccc(-c4ccc5c(CN(C)C6CCN(C(C)=O)CC6)cn(C)c5n4)c3Cl)c2Cl)ccc1CNC[C@@H]1CCC(=O)N1` [Cmpd 92, (S)-5-(((4-(4-(3-(3-(((1-acetylpiperidin-4-yl)(methyl)amino)methyl)-1-methyl-1H-pyrrolo[2,3-b]pyridin-6-yl)-2-chlorophenyl)-3-chloropyridin-2-yl)-2-methoxybenzyl)amino)methyl)pyrrolidin-2-one], 10.1 nM.
Take `COc1cc(-c2nccc(-c3cccc(-c4ccc5c(CNC[C@@H]6CCCO6)cn(C)c5n4)c3Cl)c2Cl)ccc1CNC[C@@H]1CCC(=O)N1` [Cmpd 93, (S)-5-(((4-(3-chloro-4-(2-chloro-3-(1-methyl-3-(((((S)-tetrahydrofuran-2-yl)methyl)amino)methyl)-1H-pyrrolo[2,3-b]pyridin-6-yl)phenyl)pyridin-2-yl)-2-methoxybenzyl)amino)methyl)pyrrolidin-2-one]: it took 44.2 nM to reach a half-maximal effect (EC50).
On to `COc1nc(-c2cccc(-c3ccnc(-c4cc5c(=O)n(C)c(CNC6CC(C)(O)C6)nn5c4)c3Cl)c2Cl)ccc1CNC[C@@H]1CCC(=O)N1` (stereo partly drawn) [Cmpd 102, (S)-6-(3-chloro-4-(2-chloro-3-(6-methoxy-5-((((5-oxopyrrolidin-2-yl)methyl)amino)methyl)pyridin-2-yl)phenyl)pyridin-2-yl)-2-(((3-hydroxy-3-methylcyclobutyl)amino)methyl)-3-methylpyrrolo[2,1-f][1,2,4]triazin-4(3H)-one], for which a half-maximal effect (EC50) was put at 342 nM.
As for `COc1cc(-c2nccc(-c3cccc(-c4cc(Cl)c(CNC[C@@H]5CCC(=O)N5)c(OC)n4)c3Cl)c2Cl)cc2c1CN(C[C@@H](C)O)CC2` [Cmpd 104, (S)-5-((((4-chloro-6-(2-chloro-3-(3-chloro-2-(2-((R)-2-hydroxypropyl)-8-methoxy-1,2,3,4-tetrahydroisoquinolin-6-yl)pyridin-4-yl)phenyl)-2-methoxypyridin-3-yl)methyl)amino)methyl)pyrrolidin-2-one], the figure is 30.7 nM.
As for `COc1cc(-c2nccc(-c3cccc(-c4cc(Cl)c(CNC[C@@H]5CCC(=O)N5)c(OC)n4)c3Cl)c2Cl)ccc1CNCC(=O)O` [Cmpd 105, (S)-(4-(3-chloro-4-(2-chloro-3-(4-chloro-6-methoxy-5-((((5-oxopyrrolidin-2-yl)methyl)amino)methyl)pyridin-2-yl)phenyl)pyridin-2-yl)-2-methoxybenzyl)glycine], the figure is 191 nM; as for `COc1cc(-c2nccc(-c3cccc(-c4ccc(CNC[C@@H]5CCC(=O)N5)c(OC)n4)c3Cl)c2Cl)ccc1CNCC(=O)O` [Cmpd 107, (S)-(4-(3-chloro-4-(2-chloro-3-(6-methoxy-5-((((5-oxopyrrolidin-2-yl)methyl)amino)methyl)pyridin-2-yl)phenyl)pyridin-2-yl)-2-methoxybenzyl)glycine], 253 nM; as for `COc1cc(-c2nccc(-c3cccc(-c4ccc(CNC[C@@H]5CCC(=O)N5)c(OC)n4)c3Cl)c2Cl)ccc1CNCC(=O)OC(C)C` [Cmpd 108, isopropyl (S)-(4-(3-chloro-4-(2-chloro-3-(6-methoxy-5-((((5-oxopyrrolidin-2-yl)methyl)amino)methyl)pyridin-2-yl)phenyl)pyridin-2-yl)-2-methoxybenzyl)glycinate], 140 nM.
In the case of `COc1cc(-c2nccc(-c3cccc(-c4ccc(CNC[C@@H]5CCC(=O)N5)c(OC)n4)c3Cl)c2Cl)ccc1CNC1CCN(C(C)=O)CC1` [Cmpd 109, (S)-5-((((6-(3-(2-(4-(((1-acetylpiperidin-4-yl)amino)methyl)-3-methoxyphenyl)-3-chloropyridin-4-yl)-2-chlorophenyl)-2-methoxypyridin-3-yl)methyl)amino)methyl)pyrrolidin-2-one] it was 27.9 nM.
